Laboratory results reported in the Biogen ADME set (Fang et al. 2023).
Values after ≈ are worked out from the molar mass of the structure shown.

Settings: for aqueous solubility: pH 6.8

Compound	MDR1-MDCK efflux ratio	intrinsic clearance, human liver microsomes	intrinsic clearance, rat liver microsomes	aqueous solubility	fraction unbound, human plasma	fraction unbound, rat plasma
Cc1cc(Nc2ccc(F)cn2)cc(C2CCN(C(=O)COc3ccccc3)C2)n1 (configuration not stated)	15.5	6.37 L/h/kg	39.8 L/h/kg	–	–	–
CN1CCN(C(=O)C2(NC(=O)c3ccc(C(F)(F)F)cc3)CCCC2)CC1	86	≤ 0.284 L/h/kg	≤ 0.64 L/h/kg	0.0761 mg/mL (≈ 199 µM)	–	–
Fc1cc(CCNc2ncnc3sccc23)c2c(c1)COCO2	–	13.1 L/h/kg	168 L/h/kg	–	–	–
Cc1ccc(CN(C)Cc2c(C)noc2C)o1	–	1.66 L/h/kg	76.3 L/h/kg	0.0316 mg/mL (≈ 135 µM)	–	–
CCCn1c(=O)[nH]c2nc(-c3ccc(S(=O)(=O)O)cc3)[nH]c2c1=O	–	≤ 0.284 L/h/kg	≤ 0.64 L/h/kg	0.0521 mg/mL (≈ 149 µM)	–	–
C=CC(=O)N(C)CCOc1c(N)ncnc1-c1cc(F)cc(NC(=O)c2ccc(C3CC3)cc2F)c1C	86.8	4.74 L/h/kg	122 L/h/kg	0.0589 mg/mL (≈ 116 µM)	0.0689	–
O=S(=O)(Cc1csc(C2CCCC2)n1)C1CCCC1	0.538	5.56 L/h/kg	132 L/h/kg	0.0349 mg/mL (≈ 116 µM)	–	–
O=C(c1cccnc1)N1CCCC(c2cccc(-c3cccc(Cl)c3)n2)C1 (configuration not stated)	0.905	23.8 L/h/kg	76 L/h/kg	0.036 mg/mL (≈ 95.1 µM)	–	–
CCCC(=O)Nc1ccc(-n2cccn2)nc1	0.559	≤ 0.284 L/h/kg	1.91 L/h/kg	0.0452 mg/mL (≈ 196 µM)	–	–
CN(CC(N)=O)Cc1cc2c(cc1Br)OCO2	0.761	0.624 L/h/kg	19.5 L/h/kg	0.0697 mg/mL (≈ 231 µM)	–	–
CC(C)c1ccc2occ(CC(=O)O)c2c1	–	≤ 0.284 L/h/kg	≤ 0.64 L/h/kg	–	–	–
Cc1nccc(N(C)Cc2ccc(N)nc2)n1	4.39	≤ 0.284 L/h/kg	≤ 0.64 L/h/kg	–	–	–
CCOc1ccc(NC(=O)c2ccc3c(c2)NC(=O)CO3)cc1	–	≤ 0.284 L/h/kg	27.5 L/h/kg	–	–	–
CCC(=O)Nc1cccc(C(=O)N2CCN(C)Cc3ccccc32)c1	41.5	–	–	0.0002 mg/mL (≈ 0.593 µM)	–	–
Cc1ccc(NC(=O)OC(C)(C)C)c2c1N(C(=O)[C@H]1CCCO1)CCC2	2.91	2.01 L/h/kg	22.6 L/h/kg	0.0322 mg/mL (≈ 89.3 µM)	–	–
Fc1cncc(-c2cnc(NCc3ccc(Cl)c(F)c3)nc2)c1	0.339	0.896 L/h/kg	6.23 L/h/kg	0.0032 mg/mL (≈ 9.62 µM)	–	–
NS(=O)(=O)OC[C@@H]1C[C@@H](n2ccc3c(N[C@H]4CCc5ccccc54)ncnc32)C[C@@H]1O	51.9	2.46 L/h/kg	40.8 L/h/kg	0.0444 mg/mL (≈ 100 µM)	–	–
COc1ccccc1-c1nc(C(=O)O)cs1	0.649	≤ 0.284 L/h/kg	≤ 0.64 L/h/kg	0.0546 mg/mL (≈ 232 µM)	–	–
Cc1nccc(-c2cccc(NCC(=O)N(C)c3ccccc3)c2)n1	0.964	1.32 L/h/kg	24 L/h/kg	0.0382 mg/mL (≈ 115 µM)	–	–
O=S(=O)(c1cn[nH]c1)N1CCCC(c2cccc(-c3cccc(Cl)c3)n2)C1 (configuration not stated)	3	3.16 L/h/kg	23.6 L/h/kg	0.00145 mg/mL (≈ 3.6 µM)	–	–

Compound	MDR1-MDCK efflux ratio	intrinsic clearance, human liver microsomes	intrinsic clearance, rat liver microsomes	aqueous solubility	fraction unbound, human plasma	fraction unbound, rat plasma
Cc1nc(-c2ccncc2)cc(N2CCC(CO)CC2)n1	–	≤ 0.284 L/h/kg	2.22 L/h/kg	–	–	–
CC(C)N1CC[C@H](c2nnc(-c3cncn3C)o2)C1	–	≤ 0.284 L/h/kg	4.75 L/h/kg	0.0393 mg/mL (≈ 150 µM)	–	–
CC(=O)NC[C@H]1C[C@]2(C)[C@@H](CCCC[C@]2(C)O)N1CC1(O)CCCCCC1	–	3.07 L/h/kg	35.2 L/h/kg	–	–	–
O=C(O)c1cnn(-c2ccncc2)c1C(F)F	–	≤ 0.284 L/h/kg	≤ 0.64 L/h/kg	0.0319 mg/mL (≈ 133 µM)	–	–
COc1cc(OC)cc(-n2c(S)nnc2COc2cccc3ccccc23)c1	1.65	–	–	0.00028 mg/mL (≈ 0.712 µM)	–	–
Cc1cc(C(=O)N(C)CC2CCN(CCO)CC2)cc(C)n1	1.95	0.475 L/h/kg	1.75 L/h/kg	–	–	–
Cc1cc(C)c(C#N)c(N2CCN(CC(=O)Nc3ccccc3Cl)CC2)n1	0.804	7.48 L/h/kg	48.3 L/h/kg	0.00109 mg/mL (≈ 2.84 µM)	–	–
COc1ccccc1N1CCN(CCNC(=O)c2ccc(F)cc2)CC1	–	1.32 L/h/kg	21.4 L/h/kg	–	–	–
c1cc(CC2CCNCC2)c2cccnc2c1	–	≤ 0.284 L/h/kg	8.46 L/h/kg	0.0522 mg/mL (≈ 231 µM)	–	–
Cc1nn(C)c(C)c1CCC(=O)N1CCCc2ncccc21	22.7	4.79 L/h/kg	27 L/h/kg	0.0542 mg/mL (≈ 182 µM)	–	–
CN(C)S(=O)(=O)Nc1ccc(-n2ncc3ccccc32)cc1	0.562	1.29 L/h/kg	57.5 L/h/kg	0.0389 mg/mL (≈ 123 µM)	–	–
c1ccc(COc2ccc(CNCC3CCNCC3)cc2)cc1	4.9	≤ 0.284 L/h/kg	1.26 L/h/kg	0.0252 mg/mL (≈ 81.2 µM)	–	–
Cc1ccsc1C(=O)NCc1ccc2c(c1)OCCCO2	0.582	3.18 L/h/kg	57.1 L/h/kg	0.0569 mg/mL (≈ 187 µM)	–	–
COc1cccc(O[C@H]2CCN(C(=O)c3cc(-c4ccc(C)cc4)on3)CC[C@@H]2O)c1	0.721	4.94 L/h/kg	63.7 L/h/kg	–	–	–
CNC(=O)c1cccc(Cn2nnc(-c3ccccc3Cl)n2)c1	9.33	0.988 L/h/kg	46.5 L/h/kg	0.0229 mg/mL (≈ 70 µM)	–	–
Cc1cc(C)n(CCNC(=O)NC2CCOCC2)n1	28.3	≤ 0.284 L/h/kg	≤ 0.64 L/h/kg	0.0475 mg/mL (≈ 178 µM)	–	–
O=C(NCc1nc(-c2cnccn2)n[nH]1)C1Cc2ccccc2C1	8.75	≤ 0.284 L/h/kg	1.14 L/h/kg	–	–	–
Cc1cccc(N(C)C(=S)Oc2ccc3ccccc3c2)c1	–	–	–	0.0007 mg/mL (≈ 2.28 µM)	–	–
COCCS(=O)(=O)N1CCC2(Cc3ccccc3C2)C1	0.583	1.15 L/h/kg	53.6 L/h/kg	0.054 mg/mL (≈ 183 µM)	–	–
COc1cc2nc(/C=C/c3cocn3)sc2cc1OC	0.504	0.683 L/h/kg	4.47 L/h/kg	0.0124 mg/mL (≈ 42.9 µM)	–	–

Compound	MDR1-MDCK efflux ratio	intrinsic clearance, human liver microsomes	intrinsic clearance, rat liver microsomes	aqueous solubility	fraction unbound, human plasma	fraction unbound, rat plasma
CN(C)c1cc(CNc2ccc(C#N)cn2)ccn1	0.695	0.625 L/h/kg	5.67 L/h/kg	0.046 mg/mL (≈ 182 µM)	–	–
O=C(NC12CCCC1NCC2)c1ccc(-c2cn[nH]c2)cc1 (configuration not stated)	2.29	≤ 0.284 L/h/kg	–	–	1	–
CCN1CCC(CCNc2ncc(C)c(N(C)C)n2)CC1	11.5	≤ 0.284 L/h/kg	19.4 L/h/kg	–	–	–
CS(=O)(=O)CCN1CCC(n2c(=O)[nH]c3ccccc32)CC1	–	≤ 0.284 L/h/kg	≤ 0.64 L/h/kg	0.0629 mg/mL (≈ 194 µM)	–	–
CC(C)(C)n1cc(CNc2cccnc2)cn1	0.564	≤ 0.284 L/h/kg	2.5 L/h/kg	0.0255 mg/mL (≈ 111 µM)	–	–
COc1ccc2c(c1)C(=O)N(c1ccc(C)cc1)C(=O)C2	–	1.79 L/h/kg	22.1 L/h/kg	–	–	–
[2H]C([2H])([2H])NC(=O)c1nnc(NC(=O)C2CC2)cc1Nc1cccc(-c2ncn(C)n2)c1OC	114	≤ 0.284 L/h/kg	1.57 L/h/kg	0.017 mg/mL (≈ 39.9 µM)	0.154	0.172
CCc1nnc(N2CC(N(C)C)C2)c(C#N)c1CC	0.843	0.549 L/h/kg	7.79 L/h/kg	–	–	–
O=C(Nn1cnc2ccccc21)c1cc(Cl)ccc1F	0.985	≤ 0.284 L/h/kg	≤ 0.64 L/h/kg	0.0402 mg/mL (≈ 139 µM)	–	–
Cc1ccsc1-c1nc(CN(C)CCc2cn[nH]c2)c(C)o1	–	11.1 L/h/kg	72.9 L/h/kg	0.0557 mg/mL (≈ 176 µM)	–	–
C[C@H]1CN(C2COC2)CCN1c1ccc(Nc2cc(-c3ccnc(N4CCn5c(cc6c5CC(C)(C)C6)C4=O)c3CO)cn(C)c2=O)nc1	23.1	0.886 L/h/kg	≤ 0.64 L/h/kg	0.0461 mg/mL (≈ 69.3 µM)	0.162	–
Cn1c(NC(=O)c2ccn(COc3ccccc3)n2)nc2ccccc21	–	–	–	0.0058 mg/mL (≈ 16.7 µM)	–	–
CN(C)c1nc(CN2CCOCC2)nc2scc(-c3cccs3)c12	1.03	9.89 L/h/kg	107 L/h/kg	0.0573 mg/mL (≈ 159 µM)	–	–
CCCS(=O)(=O)Nc1ccc(F)c(C(=O)c2c[nH]c3ncc(Cl)cc23)c1F	–	0.457 L/h/kg	1.33 L/h/kg	–	–	–
COCc1ccccc1CNc1ccc2cc(C#N)ccc2n1	0.442	4.43 L/h/kg	25.7 L/h/kg	0.00261 mg/mL (≈ 8.6 µM)	–	–
COc1ccc(C(=O)N2CCN(C(=O)/C=C/c3ccc(Br)cc3)CC2)cc1	0.858	–	–	–	–	–
COc1cc(OCc2ccccn2)ccc1/C=C/c1cc(/C=C/c2ccc3cc[nH]c3c2)[nH]n1	–	–	–	0.00061 mg/mL (≈ 1.36 µM)	–	–
CCCN(C(=O)c1ccc(COC)o1)c1nc2c(s1)CCc1c-2cnn1C	–	4.54 L/h/kg	5.34 L/h/kg	–	–	–
